# How the values were obtained:
# RIPK2 = RIPK2 (Homo sapiens, UniProt O43353); assay: Kinase profiling; assay type: biochemical
# PAK5 = PAK5 (Homo sapiens, UniProt Q9P286); assay: Kinase profiling; assay type: biochemical
# [1] = test system: Bone-marrow-derived macrophages; assay: Markers of alternatively activated macrophages (qPCR); assay type: cell-based, mouse; details: 3 μM bosutinib or 0.3 μM dasatinib 1 h, then LPS
# Description: (§1) mRNA was extracted from cells using the MicroElute Total RNA kit following the manufacturers’ instructions (Omega Bio-Tek). cDNA was generated from 0.5 μg of total RNA using the iScript cDNA synthesis kit and quantified by quantitative real-time PCR (qPCR) using the SsoFast EvaGreen Supermix on a CFX384 real-time system (Bio-Rad Laboratories). The relative expression of each gene was calculated from CT values using the Pfaffl method and was normalized against the mRNA levels of housekeeping genes including 18S RNA and GAPDH. Results are reported relative to untreated control cells, which were set to 1.
# [2] = test system: Bone-marrow-derived macrophages; assay: CREB-dependent gene transcription (qPCR); assay type: cell-based, mouse; details: 3 μM bosutinib or 0.3 μM dasatinib; LPS or Pam3CSK4
# Description: as §1
# CHK1 = biological target: T1, CHK1 (Homo sapiens, UniProt O14757); assay: Kinase profiling; assay type: biochemical
# T1 sequence (O14757 1-476): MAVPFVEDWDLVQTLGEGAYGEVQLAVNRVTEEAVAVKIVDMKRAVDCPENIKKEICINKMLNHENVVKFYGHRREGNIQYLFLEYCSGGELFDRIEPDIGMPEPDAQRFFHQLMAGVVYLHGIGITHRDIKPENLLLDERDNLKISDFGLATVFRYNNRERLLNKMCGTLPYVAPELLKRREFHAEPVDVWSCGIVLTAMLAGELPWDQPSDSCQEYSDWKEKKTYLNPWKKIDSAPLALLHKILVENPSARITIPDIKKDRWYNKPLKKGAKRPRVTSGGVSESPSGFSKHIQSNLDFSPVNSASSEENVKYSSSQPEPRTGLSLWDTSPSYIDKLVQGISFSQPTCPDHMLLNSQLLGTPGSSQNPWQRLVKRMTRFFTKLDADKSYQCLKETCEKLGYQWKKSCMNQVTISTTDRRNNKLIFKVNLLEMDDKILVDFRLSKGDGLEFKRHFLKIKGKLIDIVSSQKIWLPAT
# PKC zeta = biological target: T2, PKC zeta (Homo sapiens, UniProt Q05513); assay: Kinase profiling; assay type: biochemical
# T2 sequence (Q05513 1-592): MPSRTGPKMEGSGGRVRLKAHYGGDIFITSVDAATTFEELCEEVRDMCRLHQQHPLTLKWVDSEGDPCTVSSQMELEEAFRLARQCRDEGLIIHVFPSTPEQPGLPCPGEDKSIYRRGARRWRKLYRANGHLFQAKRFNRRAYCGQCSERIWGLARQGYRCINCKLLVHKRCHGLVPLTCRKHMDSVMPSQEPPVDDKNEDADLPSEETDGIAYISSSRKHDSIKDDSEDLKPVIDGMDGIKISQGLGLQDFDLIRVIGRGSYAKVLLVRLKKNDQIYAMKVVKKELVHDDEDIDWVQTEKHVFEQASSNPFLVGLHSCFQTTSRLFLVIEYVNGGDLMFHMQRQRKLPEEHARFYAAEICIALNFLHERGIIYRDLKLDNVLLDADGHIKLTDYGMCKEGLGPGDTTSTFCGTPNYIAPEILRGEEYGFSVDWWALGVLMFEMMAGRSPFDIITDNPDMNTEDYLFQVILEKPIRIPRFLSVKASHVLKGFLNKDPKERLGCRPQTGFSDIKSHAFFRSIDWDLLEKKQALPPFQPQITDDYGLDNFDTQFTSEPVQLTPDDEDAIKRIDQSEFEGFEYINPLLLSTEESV
# IRR = IRR (Homo sapiens, UniProt P14616); assay: Kinase profiling; assay type: biochemical
# Chain of IRR (P14616 27-1297): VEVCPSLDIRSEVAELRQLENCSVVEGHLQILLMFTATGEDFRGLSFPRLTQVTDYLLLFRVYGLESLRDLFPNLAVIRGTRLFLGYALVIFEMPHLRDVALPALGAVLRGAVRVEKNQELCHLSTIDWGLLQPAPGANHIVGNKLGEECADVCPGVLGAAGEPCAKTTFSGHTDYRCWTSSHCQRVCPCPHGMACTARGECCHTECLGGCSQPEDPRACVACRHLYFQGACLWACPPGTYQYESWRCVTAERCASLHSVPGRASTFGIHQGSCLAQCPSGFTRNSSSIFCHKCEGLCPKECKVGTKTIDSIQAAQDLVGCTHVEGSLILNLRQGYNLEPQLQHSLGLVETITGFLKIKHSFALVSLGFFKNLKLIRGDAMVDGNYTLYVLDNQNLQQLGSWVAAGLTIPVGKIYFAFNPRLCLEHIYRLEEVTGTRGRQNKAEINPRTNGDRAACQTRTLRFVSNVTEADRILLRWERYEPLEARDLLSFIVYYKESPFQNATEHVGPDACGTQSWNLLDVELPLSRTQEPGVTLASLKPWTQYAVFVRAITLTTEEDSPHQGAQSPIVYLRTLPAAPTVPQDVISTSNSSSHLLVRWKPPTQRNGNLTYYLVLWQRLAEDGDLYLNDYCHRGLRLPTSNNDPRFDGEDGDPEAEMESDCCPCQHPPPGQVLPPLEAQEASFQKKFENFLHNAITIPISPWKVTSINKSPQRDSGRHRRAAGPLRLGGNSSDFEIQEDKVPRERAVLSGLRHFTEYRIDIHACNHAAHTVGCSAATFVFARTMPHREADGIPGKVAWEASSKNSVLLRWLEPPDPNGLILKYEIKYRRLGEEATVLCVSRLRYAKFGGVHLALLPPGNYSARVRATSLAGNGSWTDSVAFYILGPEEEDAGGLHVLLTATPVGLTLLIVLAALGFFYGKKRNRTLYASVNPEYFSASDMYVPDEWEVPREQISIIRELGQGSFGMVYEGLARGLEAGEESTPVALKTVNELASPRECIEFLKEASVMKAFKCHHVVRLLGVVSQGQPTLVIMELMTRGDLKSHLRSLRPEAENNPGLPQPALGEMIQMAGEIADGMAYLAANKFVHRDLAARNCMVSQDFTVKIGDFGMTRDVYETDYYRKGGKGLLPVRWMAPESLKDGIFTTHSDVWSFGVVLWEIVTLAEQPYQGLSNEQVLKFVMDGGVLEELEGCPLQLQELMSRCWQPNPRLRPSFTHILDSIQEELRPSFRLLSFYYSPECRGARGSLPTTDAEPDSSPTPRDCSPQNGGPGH
# TESK1 = TESK1 (Homo sapiens, UniProt Q15569); assay: Kinase profiling; assay type: biochemical
# Chain of TESK1 (Q15569 whole entry): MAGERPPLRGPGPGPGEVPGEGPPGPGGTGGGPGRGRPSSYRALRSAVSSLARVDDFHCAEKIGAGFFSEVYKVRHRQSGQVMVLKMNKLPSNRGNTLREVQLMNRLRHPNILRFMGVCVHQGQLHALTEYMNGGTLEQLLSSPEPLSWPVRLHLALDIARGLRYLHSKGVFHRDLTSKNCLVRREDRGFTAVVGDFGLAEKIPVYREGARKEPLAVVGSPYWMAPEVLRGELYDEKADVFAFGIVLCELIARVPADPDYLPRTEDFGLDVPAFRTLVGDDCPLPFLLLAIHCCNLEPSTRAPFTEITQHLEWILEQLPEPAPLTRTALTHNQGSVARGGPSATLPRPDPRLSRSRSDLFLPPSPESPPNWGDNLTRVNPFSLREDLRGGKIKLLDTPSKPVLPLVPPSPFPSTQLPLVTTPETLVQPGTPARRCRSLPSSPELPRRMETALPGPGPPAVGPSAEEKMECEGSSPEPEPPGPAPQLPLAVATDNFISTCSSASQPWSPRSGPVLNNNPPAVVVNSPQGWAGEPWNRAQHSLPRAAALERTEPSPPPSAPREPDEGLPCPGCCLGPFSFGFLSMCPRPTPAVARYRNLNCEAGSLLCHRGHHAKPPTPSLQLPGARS
# PKC gamma = PKC gamma (Homo sapiens, UniProt P05129); assay: Kinase profiling; assay type: biochemical
# [3] = test system: RAW264.7 macrophages expressing HA-SIK2[T96Q]; assay: IL-10 and Nurr77 mRNA in macrophages expressing drug-resistant SIK2; assay type: cell-based; details: cells expressing drug-resistant SIK2[T96Q]; drug 1 h, LPS 1 h
# Description: Primary macrophages were generated by differentiating bone marrow from 6- to 12-week-old C57BL/6 mice for 7 days in Dulbecco's modified Eagle's medium (DMEM) supplemented with 5 ng/ml recombinant M-CSF (R&D systems), 2 mM glutamine, 10% FBS, penicillin and streptomycin. Bone-marrow-derived macrophages were differentiated on non-tissue-culture-treated plastic, harvested and replated at a density of 100000 cells/cm^2 per 0.1 ml on tissue culture-treated plastic in fresh medium before stimulation on day 8. RAW264.7 cells were cultured in DMEM containing 10% FBS, 2 mM glutamine and penicillin and streptomycin. […] Cells were treated for 1 h with or without inhibitors and then stimulated for up to 24 h with either 1 μg/ml Pam3CSK4 or 100 ng/ml LPS.
# as §1, with “GAPDH.” for “GAPDH. Results are reported relative to untreated control cells, which were set to 1.”
# MAP4K5 = MAP4K5 (Homo sapiens, UniProt Q9Y4K4); assay: Kinase profiling; assay type: biochemical
# Chain of MAP4K5 (Q9Y4K4 whole entry): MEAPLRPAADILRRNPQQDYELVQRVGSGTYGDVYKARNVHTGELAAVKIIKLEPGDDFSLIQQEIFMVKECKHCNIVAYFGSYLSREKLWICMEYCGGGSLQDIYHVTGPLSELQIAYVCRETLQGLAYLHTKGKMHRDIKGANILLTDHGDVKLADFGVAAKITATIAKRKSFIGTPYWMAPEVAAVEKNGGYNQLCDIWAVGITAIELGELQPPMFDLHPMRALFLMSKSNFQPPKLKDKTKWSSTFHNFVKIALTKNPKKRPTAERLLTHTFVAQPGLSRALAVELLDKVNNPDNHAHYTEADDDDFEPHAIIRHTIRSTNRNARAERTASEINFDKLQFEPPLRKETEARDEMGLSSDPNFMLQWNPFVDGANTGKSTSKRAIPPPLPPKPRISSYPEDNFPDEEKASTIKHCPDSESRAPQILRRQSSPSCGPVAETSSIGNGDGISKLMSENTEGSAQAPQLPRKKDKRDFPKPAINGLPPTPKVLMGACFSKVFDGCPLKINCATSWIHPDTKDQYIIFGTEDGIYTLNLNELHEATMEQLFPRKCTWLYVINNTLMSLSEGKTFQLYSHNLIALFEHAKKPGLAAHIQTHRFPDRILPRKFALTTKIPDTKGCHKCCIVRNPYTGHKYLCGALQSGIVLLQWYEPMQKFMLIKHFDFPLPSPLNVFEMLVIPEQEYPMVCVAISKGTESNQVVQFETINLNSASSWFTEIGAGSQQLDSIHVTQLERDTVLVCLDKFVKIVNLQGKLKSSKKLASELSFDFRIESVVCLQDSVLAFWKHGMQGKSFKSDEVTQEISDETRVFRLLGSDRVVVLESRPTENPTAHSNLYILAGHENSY
# Chain of RIPK2 (O43353 whole entry): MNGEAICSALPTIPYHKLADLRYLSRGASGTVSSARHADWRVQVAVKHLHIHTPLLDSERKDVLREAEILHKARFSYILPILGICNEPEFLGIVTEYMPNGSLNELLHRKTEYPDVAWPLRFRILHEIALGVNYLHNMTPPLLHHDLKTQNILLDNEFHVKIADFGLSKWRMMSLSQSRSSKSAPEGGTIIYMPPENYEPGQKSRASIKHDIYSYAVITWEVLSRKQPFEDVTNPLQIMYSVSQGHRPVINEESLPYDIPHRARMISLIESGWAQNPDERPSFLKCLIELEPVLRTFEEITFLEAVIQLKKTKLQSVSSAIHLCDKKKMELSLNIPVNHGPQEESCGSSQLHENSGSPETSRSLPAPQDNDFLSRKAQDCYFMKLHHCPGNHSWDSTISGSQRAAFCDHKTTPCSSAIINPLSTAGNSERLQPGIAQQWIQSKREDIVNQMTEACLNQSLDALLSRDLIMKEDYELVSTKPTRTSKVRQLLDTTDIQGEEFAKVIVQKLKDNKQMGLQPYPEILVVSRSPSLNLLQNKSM
# Chain of PAK5 (Q9P286 whole entry): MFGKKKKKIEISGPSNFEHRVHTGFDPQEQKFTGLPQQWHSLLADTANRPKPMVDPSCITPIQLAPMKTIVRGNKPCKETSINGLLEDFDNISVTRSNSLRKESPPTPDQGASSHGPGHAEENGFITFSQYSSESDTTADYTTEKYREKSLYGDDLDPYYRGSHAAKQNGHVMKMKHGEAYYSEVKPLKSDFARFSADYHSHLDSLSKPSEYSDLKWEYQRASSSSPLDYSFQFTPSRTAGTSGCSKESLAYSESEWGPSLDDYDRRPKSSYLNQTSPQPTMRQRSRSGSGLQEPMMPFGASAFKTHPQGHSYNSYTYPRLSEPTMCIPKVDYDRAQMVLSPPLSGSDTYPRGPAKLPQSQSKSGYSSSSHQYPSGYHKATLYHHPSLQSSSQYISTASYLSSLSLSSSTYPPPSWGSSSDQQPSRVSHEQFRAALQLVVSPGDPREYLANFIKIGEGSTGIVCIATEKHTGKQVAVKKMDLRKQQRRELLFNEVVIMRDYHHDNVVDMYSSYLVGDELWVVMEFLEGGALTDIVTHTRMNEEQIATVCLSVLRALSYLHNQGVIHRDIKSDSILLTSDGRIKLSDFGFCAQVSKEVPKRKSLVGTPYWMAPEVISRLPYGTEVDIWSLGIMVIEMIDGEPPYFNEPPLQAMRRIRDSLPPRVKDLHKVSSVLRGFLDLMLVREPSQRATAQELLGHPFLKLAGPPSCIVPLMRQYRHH
SMILES,remaining activity at 0.1 µM (RIPK2),remaining activity at 1 µM (RIPK2),remaining activity at 0.1 µM (PAK5),remaining activity at 1 µM (PAK5),"Expression of FIZZ, YM1 and Mgl2 [1]","Transcription of CREB-dependent genes IL-10, Nurr77 and c-FOS [2]",remaining activity at 0.1 µM (CHK1),remaining activity at 1 µM (CHK1),remaining activity at 0.1 µM (PKC zeta),remaining activity at 1 µM (PKC zeta),remaining activity at 0.1 µM (IRR),remaining activity at 1 µM (IRR),remaining activity at 0.1 µM (TESK1),remaining activity at 1 µM (TESK1),remaining activity at 0.1 µM (PKC gamma),remaining activity at 1 µM (PKC gamma),LPS-stimulated CREB-dependent gene transcription including IL-10 and Nurr77 [3],remaining activity at 0.1 µM (MAP4K5),remaining activity at 1 µM (MAP4K5; 1 µM)
"COc1cc(Nc2c(C#N)cnc3cc(OCCCN4CCN(C)CC4)c(OC)cc23)c(Cl)cc1Cl [Bosutinib, bosutinib]",86 ± 2%,45 ± 1%,105 ± 18%,129 ± 5%,without affecting the expression,elevated the transcription,91 ± 2%,57%,91 ± 2%,102 ± 4%,72 ± 5%,59 ± 1%,82 ± 15%,61 ± 2%,88 ± 6%,102 ± 5%,little effect,0%,1%
Cc1nc(Nc2ncc(C(=O)Nc3c(C)cccc3Cl)s2)cc(N2CCN(CCO)CC2)n1 [Dasatinib],5%,10 ± 12%,131 ± 12%,138 ± 7%,without affecting the expression,elevated the transcription,100 ± 6%,96 ± 6%,101 ± 3%,109 ± 7%,89 ± 4%,90 ± 14%,50 ± 3%,8%,107 ± 22%,114 ± 22%,little effect,22 ± 1%,

# Reference: publication PMC4286194 (Biochemical Journal, 2015)
